Data published in ChEMBL document CHEMBL4014345, “Development of Selective Clk1 and -4 Inhibitors for Cellular Depletion of Cancer-Relevant Proteins” (J Med Chem, 2017).

Biological target: Dual specificity protein kinase CLK1 (Homo sapiens, UniProt P49759)
Assay: Inhibition of recombinant human GST-tagged Clk1 expressed in Escherichia coli at 100 nM using RS repeat substrate peptide after 15 mins in presence of [gamma-32]-ATP

Chain of Dual specificity protein kinase CLK1 (P49759 whole entry, looked up): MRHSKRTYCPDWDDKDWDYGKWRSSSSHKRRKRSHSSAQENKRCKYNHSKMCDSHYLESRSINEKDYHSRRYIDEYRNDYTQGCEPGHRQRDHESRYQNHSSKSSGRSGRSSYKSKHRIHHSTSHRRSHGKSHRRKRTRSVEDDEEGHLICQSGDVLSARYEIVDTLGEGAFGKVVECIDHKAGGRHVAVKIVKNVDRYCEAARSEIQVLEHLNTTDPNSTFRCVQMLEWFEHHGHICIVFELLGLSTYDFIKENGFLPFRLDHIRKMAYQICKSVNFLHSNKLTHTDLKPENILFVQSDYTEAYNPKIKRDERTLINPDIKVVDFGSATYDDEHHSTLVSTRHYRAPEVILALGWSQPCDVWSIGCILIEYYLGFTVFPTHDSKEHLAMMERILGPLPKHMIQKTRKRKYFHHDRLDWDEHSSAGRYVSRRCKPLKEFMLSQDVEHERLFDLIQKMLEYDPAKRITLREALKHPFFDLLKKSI

COc1ccc2sc(C(=O)NCc3ccc(F)cc3)cc2c1
inhibition: 23.5%

COc1ccc2sc(C(=O)NCc3ccccn3)cc2c1
inhibition: 0%

COc1ccc2sc(C(=O)N(C)Cc3cccc(C)c3)cc2c1
inhibition: 25.9%

COc1ccc2sc(C(=O)N3CCN(C)CC3)cc2c1
inhibition: 0%

COc1ccc2sc(C(=O)N[C@H](C)C(C)(C)C)cc2c1
inhibition: 6%

COc1ccc2sc(C(=O)NCCn3ccnc3)cc2c1
inhibition: 0%

COC(=O)[C@@H](NC(=O)c1cc2cc(OC)ccc2s1)C(C)C
inhibition: 18.8%

COc1ccc2sc(C(=O)N(C)CCc3ccccc3)cc2c1
inhibition: 32.9%

COc1ccc2sc(C(=O)NC3CC3)cc2c1
inhibition: 25%

COc1ccc2sc(C(=O)Nc3ccccc3)cc2c1
inhibition: 0.54%
